In data set [1] the test system is weeds. Put plainly: Post-emergence test B-1. The class given is in vivo. The conditions noted are these: post-emergence test B-1, in words. Here is the method: (§1) To produce a suitable preparation of active compound, 1 part by weight of active compound is mixed with the stated amount of solvent, the stated amount of emulsifier is added and the concentrate is diluted with water to the desired concentration.
(§2) Test plants of a height of 5-15 cm are sprayed with the preparation of active compound such that the particular amounts of active compound desired are applied per unit area. The concentration of the spray liquor is chosen so that the particular amounts of active compound desired are applied in 1000 l of water/ha.
(§3) After three weeks, the degree of damage to the plants is rated in % damage in comparison to the development of the untreated control.
(§4) 0%=no effect (like untreated control)

Data set [2] can be described thus: logP by reversed-phase HPLC (EEC Directive 79/831 Annex V.A8). The class given is physicochemical. Conditions: acetonitrile gradient; for logP: HPLC, reversed-phase C 18, 43° C., acidic range a): 0.1% aqueous phosphoric acid; for chromatographic logP: reversed-phase C18 HPLC column; HPLC, reversed-phase C 18, 43° C., acidic range a): 0.1% aqueous phosphoric acid. Here is the method:
The logP values given in Table 1 were determined in accordance with EEC Directive 79/831 Annex V.A8 by HPLC (High Performance Liquid Chromatography) using a reversed-phase column (C 18). Temperature: 43° C.
(a) Mobile phase for the determination in the acidic range: 0.1% aqueous phosphoric acid, acetonitrile; linear gradient from 10% acetonitrile to 90% acetonitrile—the corresponding data in Table 1 are labelled^a).
Calibration was carried out using unbranched alkan-2-ones (having from 3 to 16 carbon atoms) with known logP values (the logP values were determined using the retention times, by linear interpolation between two successive alkanones).

Data set [3] concerns Sinapis. Put plainly: Post-emergence test B-1 / greenhouse. The data set is classed as in vivo. The conditions noted are these: 500 g of ai./ha, rated after three weeks, 0% = no effect, 100% = total destruction. Here is the method:
as §1, §2, §3, §4

Data set [4] relates to Amaranthus. The data set is described as follows: Post-emergence test B-1 / greenhouse. The data set is classed as in vivo. The conditions noted are these: 500 g of ai./ha, rated after three weeks, 0% = no effect, 100% = total destruction. On the procedure:
as §1, §2, §3, §4

Data set [5] deals with Setaria. The data set is described as follows: Post-emergence test B-1 / greenhouse. The data set is classed as in vivo. Conditions: 500 g of ai./ha, rated after three weeks, 0% = no effect, 100% = total destruction. On the procedure: as §1, §2, §3, §4
The subject of data set [6] is Xanthium. Put plainly: Post-emergence test B-1 / greenhouse. The class given is in vivo. The conditions noted are these: 500 g of ai./ha, rated after three weeks, 0% = no effect, 100% = total destruction. Here is the method: as §1, §2, §3, §4
In data set [7] the test system is Maize. Put plainly: Post-emergence test B-1 / greenhouse. The data set is classed as in vivo. Conditions: 500 g of ai./ha, rated after three weeks, 0% = no effect, 100% = total destruction. On the procedure: as §1, §2, §3, §4
Data set [8] deals with Echinocloa crus galli, Setaria viridis, Amaranthus lividus and Polygonum blumei MEISSN. Put plainly: Post-emergence test B-2. The class given is in vivo. The conditions noted are these: post-emergence test B-2, plants in 2-leaf stage, rated after three weeks, in words. Here is the method:
as §1
Test plants (Echinocloa crus galli, Setaria viridis, Amaranthus lividus and Polygonum blumei MEISSN) which, on average, are in the 2-leaf stage, are sprayed with the preparation of active compound such that the particular amounts of active compound desired are applied per unit area.
as §3, §4

The test system is the same in data set [9]. The data set is described as follows: Pre-emergence test A-2. The class given is in vivo. Conditions: pre-emergence test A-2, rated after four weeks, in words. On the procedure: as §1
Seeds of the test plants (Echinocloa crus galli, Setaria viridis, Amaranthus lividus and Polygonum blumei MEISSN) are sown in normal soil. The soil is sprayed with the preparation of active compound such that the particular amount of active compound desired is applied per unit area.
After four weeks, the degree of damage to the plants is rated in % damage in comparison to the development of the untreated controls.
as §4

Data set [10] concerns Amaranthus. The data set is described as follows: Pre-emergence test A-1 / greenhouse. Conditions: 500 g of ai./ha, rated after three weeks, 0% = no effect, 100% = total destruction. The data set is classed as in vivo. Here is the method: as §1
(§5) Seeds of the test plants are sown in normal soil. After about 24 hours, the soil is sprayed with the preparation of active compound such that the particular amount of active compound desired is applied per unit area. The concentration of the spray liquor is chosen so that the particular amount of active compound desired is applied in 1000 litres of water per hectare.
as §3, §4

Data set [11] has as its system Abutilon. Put plainly: Pre-emergence test A-1 / greenhouse. The data set is classed as in vivo. The conditions noted are these: 500 g of ai./ha, rated after three weeks, 0% = no effect, 100% = total destruction. Here is the method:
as §1, §5, §3, §4

In data set [12] the test system is Maize. Put plainly: Pre-emergence test A-1 / greenhouse. The data set is classed as in vivo. Here is the method: as §1, §5, §3, §4
Data set [13] has as its system weeds. Put plainly: Pre-emergence test A-1. The conditions noted are these: pre-emergence test A-1, in words. The data set is classed as in vivo. Here is the method: as §1, §5, §3, §4
For data set [14], the system named is Abutilon. The data set is described as follows: Post-emergence test B-1 / greenhouse. The class given is in vivo. Conditions: 500 g of ai./ha, rated after three weeks, 0% = no effect, 100% = total destruction. On the procedure:
as §1, §2, §3, §4

For the compound `CC(Nc1nc(N)nc(C(F)(F)Cl)n1)C1CCCCC1` (racemic) [Example 6], the action against weeds entry in data set [1] is “strong action”. The logP entry in data set [2] was “logP = 3.51^a) (racemate)”. In addition, the “% damage, Sinapis” value in data set [3] worked out at 100%. Further, in data set [4], the “% damage, Amaranthus” value was found to be 100%. In addition, the “% damage, Setaria” value in [5] is listed as 100%. Besides, the “% damage, Xanthium” value in data set [6] came to 100%.

As to `CC(Nc1nc(N)nc(C(C)(C)F)n1)C1CCCCC1` (racemic) [Example 7], in [1], the action against weeds entry is recorded as “strong action”. Besides, in data set [2], the logP entry was “logP = 1.93^a) (racemate)”. For the same compound, in data set [3], the “% damage, Sinapis” value is given as 100%. Further, the “% damage, Amaranthus” value in [4] is listed as 100%. Further, in data set [5], the “% damage, Setaria” value came to 100%. In data set [6], the “% damage, Xanthium” value is 100%.

In the case of `CCC(=O)Nc1nc(NC(C)C2CCCCC2)nc(C(F)(F)Cl)n1` (racemic) [Example 8], the action against weeds entry in data set [1] is “strong action”. The logP entry in data set [2] is recorded as “logP = 4.23^a) (racemate)”. For the same compound, the “% damage, Sinapis” value in [3] worked out at 100%. In addition, the “% damage, Amaranthus” value in [4] is on record as 100%. For the same compound, the “% damage, Setaria” value in [5] was found to be 100%. For the same compound, the “% damage, Xanthium” value in [6] came to 100%.

Turning to `CCC(=O)Nc1nc(NC(C)C2CCCCC2)nc(C(C)(C)F)n1` (racemic) [Example 9], in [1], the action against weeds result is “strong action”. The logP result in [2] was “logP = 3.30^a) (racemate)”. For the same compound, the “% damage, Sinapis” value in data set [3] is 100%. Besides, the “% damage, Amaranthus” value in data set [4] worked out at 95%. The “% damage, Maize” value in [7] is recorded as 30%. For the same compound, the “% damage, Setaria” value in [5] is recorded as 90%.

In the case of `CCCC(C)Nc1nc(N)nc(C(C)(C)F)n1` (racemic) [Example 28], the “action against the abovementioned weeds” value in [8] is “strong action”.

`CC(C)CC(C)Nc1nc(N)nc(C(C)(C)F)n1` (racemic) [Example 29]: the “action against the abovementioned weeds” value in data set [8] is listed as “strong action”.

For the compound `CC(C)CCCC(C)Nc1nc(N)nc(C(C)(C)F)n1` (racemic) [Example 31], the “action against the abovementioned weeds” value in [8] is listed as “strong action”.

Turning to `CCC(CC)Nc1nc(N)nc(C(C)F)n1` (racemic) [Example 32], in data set [9], the “action against the abovementioned weeds” value is listed as “strong action”.

As for `C[C@H](Nc1nc(N)nc([C@@H](C)F)n1)C1CCCCC1` [Example 1, (R,S)-N′-(1-cyclohexyl-ethyl)-6-(1-fluoro-ethyl)-1,3,5-triazine-2,4-diamine], the action against weeds result in data set [1] and in data set [13] was “strong action” each time. For the same compound, in data set [2], the chromatographic logP came to 1.83. Besides, in data set [3], the “% damage, Sinapis” value stood at 100%. In addition, the “% damage, Amaranthus” value in data set [4] and in [10] was 100% in each case. Also, in data set [5], the “% damage, Setaria” value was found to be 100%. For the same compound, the “% damage, Xanthium” value in data set [6] is 100%. The “% damage, Abutilon” value in [11] stood at 80%. Also, the “tolerance by crop plants, such as maize” value in data set [12] (pre-emergence test A-1, in words) is given as “tolerated very well”. In addition, in data set [12] (pre-emergence, 500 g of ai./ha, rated after three weeks, 0% = no effect, 100% = total destruction), the “% damage, Maize” value came to 0%.

For `CCC(=O)Nc1nc(N[C@@H](C)C2CCCCC2)nc([C@@H](C)F)n1` [Example 2, (R,S)-N-[4-(1-cyclohexyl-ethylamino)-6-(1-fluoro-ethyl)-1,3,5-triazin-2-yl]-propionamide], in data set [1], the action against weeds entry is given as “strong action”. Also, the chromatographic logP in data set [2] amounted to 3.14. Further, in data set [3], the “% damage, Sinapis” value amounted to 100%. For the same compound, the “% damage, Amaranthus” value in [4] turned out to be 100%. For the same compound, the “% damage, Setaria” value in [5] is given as 100%. Besides, the “% damage, Xanthium” value in [6] came out at 100%.

`C[C@H](Nc1nc(NC=O)nc([C@@H](C)F)n1)C1CCCCC1` [Example 3, (R,S)-N-[4-(1-cyclohexyl-ethylamino)-6-(1-fluoro-ethyl)-1,3,5-triazin-2-yl]-formamide] gave a melting point of 127 °C. The action against weeds result in data set [1] is recorded as “strong action”. Further, the chromatographic logP in data set [2] was 3.04. Further, the “% damage, Sinapis” value in data set [3] is listed as 100%. Moreover, in data set [4], the “% damage, Amaranthus” value is recorded as 100%. Besides, in data set [14], the “% damage, Abutilon” value is 90%. Also, the “% damage, Setaria” value in [5] is 100%.

Take `CCC(=O)Nc1nc(N[C@H](C)C2CCCCC2)nc(C(C)F)n1` (stereo partly shown) [Example 15]: in [2], the logP entry is listed as “logP = 3.11^a) (R enantiomer)”.

Take `CCC(=O)Nc1nc(N[C@H](C)C2CCCCC2)nc(C(C)(C)F)n1` [Example 16]: in [2], the logP entry was “logP = 3.25^a) (R enantiomer)”.

On to `CCC(=O)Nc1nc(N[C@H](C)C2CCCCC2)nc(C(Cl)Cl)n1` [Example 17], for which the logP entry in data set [2] was “logP = 2.93^a) (R enantiomer)”.

In the case of `CCC(=O)Nc1nc(N[C@@H](C)C2CCCCC2)nc(C(C)F)n1` (stereo partly shown) [Example 21], the logP result in [2] is listed as “logP = 3.11^a) (S enantiomer)”.

With `CCC(=O)Nc1nc(N[C@@H](C)C2CCCCC2)nc(C(C)(C)F)n1` [Example 22], the logP entry in data set [2] is reported as “logP = 3.26^a) (S enantiomer)”.

Take `CCC(=O)Nc1nc(N[C@@H](C)C2CCCCC2)nc(C(Cl)Cl)n1` [Example 23]: the logP entry in data set [2] is given as “logP = 2.93^a) (S enantiomer)”.

On to `CCC(CC)Nc1nc(N)nc(C(C)(C)F)n1` [Example 33], for which the “action against the abovementioned weeds” value in data set [9] is reported as “strong action”.

As for `CCC(CC)Nc1nc(NC(C)=O)nc(C(C)(C)F)n1` [Example 34], the “action against the abovementioned weeds” value in data set [9] is reported as “strong action”.

As for “N-(1-ethylpropyl)-6-(1-fluoro-1-methylethyl)-1,3,5-triazine-2,4-diamine [Example 4]”, in [1], the action against weeds entry is on record as “strong action”. Further, the “% damage, Sinapis” value in [3] is listed as 100%. In addition, the “% damage, Amaranthus” value in data set [4] worked out at 100%. The “% damage, Setaria” value in data set [5] is given as 100%. In addition, the “% damage, Xanthium” value in data set [6] stood at 100%.

As to “N-acetyl-N′-(1-ethylpropyl)-6-(1-fluoro-1-methylethyl)-1,3,5-triazine-2,4-diamine [Example 5]”, the action against weeds result in data set [1] is listed as “strong action”. Further, the “% damage, Sinapis” value in [3] is recorded as 95%. Also, the “% damage, Amaranthus” value in data set [4] is 100%. Moreover, the “% damage, Abutilon” value in data set [14] amounted to 90%. Moreover, the “% damage, Setaria” value in data set [5] amounted to 95%.

Usually chromatographic logP stands for lipophilicity estimated from chromatographic retention. Low readings indicate lower lipophilicity, high ones higher lipophilicity. As usually defined, the melting point is the temperature of the solid-liquid transition.

(Values after patent publication US6645915B1, “Substituted 1,3,5- triazines” (Nihon Bayer Agrochem K. K., priority 1998, dated 2003).)
